Measurements taken from patent publication US11254644B2, “Inhibitors of alpha-amino-beta-carboxymuconic acid semialdehyde decarboxylase” (TES Pharma S.r.l., priority 2014, dated 2022).

Assays:
hACMSD (ACMSD1) = hACMSD (ACMSD1) (Homo sapiens (Human), UniProt Q8TDX5); test: Determination of ACMSD1 inhibition, spectrophotometrical in vitro assay; assay type: biochemical; conditions: HAA concentration of 10 μM
Description: The activity of compounds as inhibitors of ACMSD1 is determined in a spectrophotometrical in vitro assay. The pre-assay mixture is incubated and a compound of Formula (I), Formula (Ia), Formula (Ib), Formula (II), or Formula (III), or a pharmaceutically acceptable salt thereof, and ACMSD1 solution is then added. The effect of ACMS concentration on the enzyme activity is investigated by varying 3-hydroxyanthranilic acid (3OH-HA) concentration in the pre-assay mixture. Kinetic parameters are calculated from the initial velocity data using a Lineweaver-Burk plot.
The activity of compounds 1-19 and 21-23 as inhibitors of ACMSD1 was determined by measuring the conversion of 3OH-Anthranilic Acid into product (i.e., ACMS) in a spectrophotometrical in vitro assay.
The pre-assay mixture consisting of 3-hydroxyanthranilic acid (3OH-HA), 3-hydroxyanthranilic acid, 3,4-diOxygenase (HAO), and a dialyzed crude extract of E. coli BL21 (DE3) cells expressing the recombinant enzyme, was incubated at 25° C. with monitoring of the increase in absorbance at 360 nm due to the formation of ACMS from 3OH-HA. After the reaction was completed within ˜2 mins, an aliquot of ACMSD1 solution (prepared and purified from Pichia Pastoris overexpressing the recombinant enzyme) was added, and the decrease in absorbance at 360 nm was followed at 15 second intervals. The effect of ACMS concentration on the enzyme activity was investigated by varying 3OH-HA concentration from 2 to 20 μM. Kinetic parameters were calculated from the initial velocity data by using the Lineweaver-Burk plot.
The rate of the decrease in absorbance caused by ACMSD1 was calculated by subtracting that of the control reaction mixture without ACMSD from that described above. One unit of ACMSD activity was indicated as the amount of enzyme that converts 1 mmol of ACMS per minute at 25° C. The absence or a reduction of ACMSD1 activity (e.g., by using ACMSD inhibitors) results in a slow ACMS-spontaneous degradation (i.e., cyclization to form quinolic acid).
The enzymatic activity was determined at a HAA concentration of 10 μM in the presence of the compounds in Table 1 below. The compounds were tested at the concentration of about 5 μM and 10 μM and the IC50 was calculated for compounds showing inhibitory activity higher than 50%.

[1] = tested on: human primary hepatocytes; test: NAD+ content in human primary hepatocytes (LCMS/MS); assay type: cell-based; conditions: 0.5 μM and 5 μM; compound replaced every 24 hrs
Description: Primary hepatocytes are treated with different concentrations of a compound of Formula (I), Formula (Ia), Formula (Ib), Formula (II), or Formula (III), or a pharmaceutically acceptable salt thereof, or MEHP (control) after seeding. The compound is replaced every 24 hours, and then cells are directly harvested and lysed to detect NAD^+ content through LC MS/MS (liquid chromatography mass spectrometry/mass spectroscopy).
The NAD^+ concentration or content was determined in human primary hepatocytes treated with Compound 4. Vehicle (NT) was used as a control.
At least three experiments were run treating primary hepatocytes with different concentrations of Compound 4 (0.5 μM and 5 μM) after 48 hrs from seeding. Compound 4 was replaced every 24 hrs, and then cells were directly harvested and lysed with ACN/H2O (ratio 5:1). LCMS/MS was used to detect and measure NAD^+ concentration/content. […] (FIG. 1)
The NAD^+ concentration or content was determined in human primary hepatocytes treated with Compound 1 and MEHP, a known ACMSD inhibitor. MEHP was used as a control.
At least three experiments were run treating primary hepatocytes with different concentrations of Compound 1 (0.5 μM, 5 μM, and 50 μM) after 48 hrs from seeding. Compound 1 was replaced every 24 hrs, and then cells were directly harvested and lysed with ACN/H2O (ratio 5:1). […]

[2] = tested on: SOD2 activity in primary murine hepatocytes; test: Modulation of SOD2 activity in murine primary hepatocytes; assay type: cell-based, mouse
Description: Primary hepatocytes or AML-12 cells are lysed and total protein concentration is determined using the Bradford assay. SOD2 activity is determined at indicated times after treatment with a compound of Formula (I), Formula (Ia), Formula (Ib), Formula (II), or Formula (III), or a pharmaceutically acceptable salt thereof, using a SOD Assay Kit. Absorbance is determined and results are expressed in U/ml/mg of protein according to the standard curve and measured protein concentration.
Primary hepatocytes were prepared from 8-12-week-old C57BL/6J mice by collagenase perfusion method. […] Cell viability was assessed by the trypan blue method. […]
Primary hepatocytes or AML-12 cells were then lysed in a 20 mM HEPES buffer (Gibco), pH 7.2, containing 1 mM EGTA (Sigma), 210 mM mannitol (Sigma), and 70 mM sucrose (AMRESCO). Total protein concentration was determined using the Bradford assay (BioRad). SOD-2 activity was determined at indicated times after ACMSD inhibitor treatment by the SOD Assay Kit (Cayman Chemical) according to the manufacturer's instructions. […] Absorbance was determined with a Victor X4 multi-label plate reader (Perkin-Elmer) at 450 nm. Results are expressed in U/ml/mg of protein according to the standard curve and measured protein concentration.

[3] = tested on: murine primary hepatocytes; test: NAD+ content in murine primary hepatocytes (HPLC, mass spectrometry); assay type: cell-based, mouse; conditions: 24 hours
Text: NAD^+ is extracted using acidic extraction method and samples are collected and homogenized. After insoluble protein parts are pelleted, the samples are separated by high-performance liquid chromatography (HPLC) and analyzed by mass-spectrometry. The proteins in the pellet are quantified by Bradford assay and are used for normalization.
NAD^+ was extracted using acidic extraction method. Samples were collected and homogenized in 70% ice-cold perchloric acid (HClO4). After insoluble protein parts were pelleted by adding potassium carbonate (K2CO3), the samples were separated by high-performance liquid chromatography (HPLC) and analyzed by mass-spectrometry. The proteins in the pellet were quantified by Bradford assay and were used for normalization.

[4] = tested on: SIRT1-regulated genes (Pgc1a, Sod1, Sod2) in primary mouse hepatocytes; test: RT-qPCR analysis of SIRT1-regulated genes in primary murine hepatocytes; assay type: cell-based; conditions: 24 hrs, 5 nM-500 nM range
Description: Cells (AML-12, Hepa-1.6, HEK-293, primary human and murine hepatocytes) are treated with different concentrations of a compound of Formula (I), Formula (Ia), Formula (Ib), Formula (II), or Formula (III), or a pharmaceutically acceptable salt thereof and the gene expression of ACMSD, Pgc1a, Sod1, and Sod2 (MnSOD) is determined using RT-qPCR. Total RNA is extracted from cells and the extracted RNA is treated with DNase and used for reverse transcription (RT).
Primary hepatocytes were prepared from 8-12-week-old C57BL/6J mice by collagenase perfusion method. Mouse livers were perfused with Hank's balanced salt solution (HBSS, KCl, 5.4 mM; KH2PO4, 0.45 mM; NaCl, 138 mM; NaHCO3, 4.2 mM; Na2HPO4, 0.34 mM; glucose, 5.5 mM; HEPES, 1 M; EGTA, 50 mM; CaCl2), 50 mM; pH 7.4). Livers were then washed at a rate of 5 ml/min through the portal vein. After washing, livers were perfused with collagenase (0.025%) solution. Cell viability was assessed by the trypan blue method. Isolated primary hepatocytes were plated with DMEM medium (Gibco) including 10% FCS, 10 units per ml penicillin and HEPES for buffering. The cells were maintained in culture at 37° C. in a humidified atmosphere of 5% CO2/95% air. After 6-8 hrs of attachment, this medium was replaced with media containing different concentrations of an ACMSD inhibitor (i.e., Compound 1 or Compound 17) or with the corresponding concentration of DMSO (as a control). Primary hepatocytes were harvested about 24 hrs later if not indicated differently.
Gene expression of ACMSD and genes known to be regulated by SIRT1, (an enzyme that is strictly NAD^+ dependent) such as Pgc1a, Sod1, Sod2 (MnSOD), were analysed in AML-12 cells, Hepa-1.6 cells and primary murine hepatocytes treated with Compound 1 or 17.
Cells (AML-12, Hepa-1.6, HEK-293, primary human and murine hepatocytes) were treated with different concentrations of Compound 1 or Compound 17. Total RNA was extracted from cells using TRIzol (Invitrogen) according to the manufacturer's instructions. […] 50× diluted cDNA was used for RT-quantitative PCR (RT-qPCR) reactions. […]

[5] = tested on: Caspase 3/7 activity in MDCK cells; test: Modulation of cisplatin-induced caspase 3/7 activity in MDCK cells; assay type: cell-based; conditions: p<0.001
Description: MDCK cells are cultured in base medium to a final concentration of 10%. Cells are plated into 96 wells and 24 hours after cell plating the medium is changed with fresh medium supplemented with 1% FBS. Cisplatin is then used to induce cell injury. Different concentrations of Formula (I), Formula (Ia), Formula (Ib), Formula (II), or Formula (III), or a pharmaceutically acceptable salt thereof (in DMSO) are added in combination with cisplatin or prior to adding cisplatin. Caspase 3/7 activity (Promega) is determined according to standard procedures using a luminescent signal readout on a plate reader. Each experiment/condition is performed in triplicate. Caspase activity is analyzed as percentage effect normalized to the cisplatin alone and vehicle treated cells.
MDCK cells (MDCK (NBL-2) ATCC® CCL-34™) were cultured in base medium ATCC-formulated Eagle's Minimum Essential Medium, Catalog No. 30-2003 with fetal bovine serum (FBS) to a final concentration of 10%. […]
Caspase 3/7 activity (Promega) was determined according to standard procedures using a luminescent signal readout on a Victor V plate reader (PerkinElmer). […]
Caspase activity was analyzed as percentage effect normalized to the cisplatin alone (100%) and vehicle treated cells as 0% of caspase activity. Data were analyzed by GraphPad Software. […]

Chain of hACMSD (ACMSD1) (Q8TDX5 whole entry): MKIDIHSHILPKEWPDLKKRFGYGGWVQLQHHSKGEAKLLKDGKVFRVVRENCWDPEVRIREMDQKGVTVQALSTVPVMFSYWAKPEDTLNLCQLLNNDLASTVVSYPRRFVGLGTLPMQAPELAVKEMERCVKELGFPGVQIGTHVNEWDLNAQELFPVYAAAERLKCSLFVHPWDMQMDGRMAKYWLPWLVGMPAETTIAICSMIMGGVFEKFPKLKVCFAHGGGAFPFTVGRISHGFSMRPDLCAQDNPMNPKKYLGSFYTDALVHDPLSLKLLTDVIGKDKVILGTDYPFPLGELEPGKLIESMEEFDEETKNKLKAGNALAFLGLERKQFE

| Compound | IC50 (hACMSD (ACMSD1)) | other results |
| --- | --- | --- |
| N#Cc1c(-c2ccco2)nc(SCc2cccc(C(=O)O)c2)[nH]c1=O [Compound 2] | 66 nM | – |
| N#Cc1c(-c2ccsc2)nc(SCc2cccc(C(=O)O)c2)[nH]c1=O [Compound 3] | 31 nM | – |
| N#Cc1c(-c2cccs2)nc(SCc2cccc(C(=O)O)c2)[nH]c1=O [Compound 4] | 12 nM | ACMSD-1 inhibition, NAD+ content screening (FIG. 1) [1]: inhibits ACMSD-1 enzyme |
| N#Cc1c(-c2nccs2)nc(SCc2cccc(C(=O)O)c2)[nH]c1=O [Compound 5] | 49 nM | – |
| N#Cc1c(C2CCCCC2)nc(SCc2cccc(C(=O)O)c2)[nH]c1=O [Compound 6] | 77 nM | – |
| N#Cc1c(-c2ccncc2)nc(SCc2cccc(C(=O)O)c2)[nH]c1=O [Compound 7] | 82 nM | – |
| N#Cc1c(-c2ccc(Cl)cc2)nc(SCc2ccc(C(=O)O)cc2)[nH]c1=O [Compound 8] | 82 nM | – |
| CCOC(=O)c1cccc(CSc2nc(-c3ccc(C)cc3)c(C#N)c(=O)[nH]2)c1 [Compound 9] | 960 nM | – |
| Cc1nc(SCc2cccc(C(=O)O)c2)[nH]c(=O)c1C#N [Compound 10] | 1700 nM | – |
| O=C(O)c1cccc(CSc2nc(-c3ccccc3)c(Br)c(=O)[nH]2)c1 [Compound 11] | 71 nM | – |
| O=C(O)c1cccc(CSc2nc(-c3cccs3)c(Br)c(=O)[nH]2)c1 [Compound 12] | 88 nM | – |
| O=C(O)c1cccc(CSc2nc(-c3ccccc3)c(Cl)c(=O)[nH]2)c1 [Compound 13] | 136 nM | – |
| O=C(O)c1cccc(CSc2nc(-c3ccccc3)cc(=O)[nH]2)c1 [Compound 14] | 740 nM | – |
| O=C(O)c1cccc(CSc2nc(-c3cccs3)cc(=O)[nH]2)c1 [Compound 15] | 760 nM | – |
| N#Cc1c(-c2ccccc2)nc(SCc2ccc(C(=O)O)cc2)[nH]c1=O [Compound 16] | 110 nM | – |
| N#Cc1c(-c2cccs2)nc(SCc2cccc(-c3nn[nH]n3)c2)[nH]c1=O [Compound 17] | 5 nM | dose at which SOD2 effect reached a maximum [2]: about 50 nM; lowest concentration with significant effect on NAD+ levels [3]: ≤ 5 nM; Pgc1a mRNA expression level [4]: dose-dependent increase; Sod1 (Cu-Zn SOD) mRNA expression level [4]: but not Sod1; Sod2 (MnSOD) mRNA expression level [4]: dose-dependent increase |
| N#Cc1c(-c2cccs2)nc(SCc2cccc(CC(=O)O)c2)[nH]c1=O [Compound 18] | 10 nM | caspase activity compared to cisplatin alone ([5]; 100 μM, in combination with cisplatin): decreased caspase activity in significant manner; caspase activity compared to cisplatin alone ([5]; about 30 μM to about 125 μM, one hour prior to cisplatin): decreased caspase activity in significant manner |
| N#Cc1c(-c2cccs2)nc(SCc2cccc(-c3noc(=O)[nH]3)c2)[nH]c1=O [Compound 19] | 25 nM | – |
| CC(Sc1nc(-c2ccccc2)c(C#N)c(=O)[nH]1)C(=O)O (centres unmarked) [Compound 21] | 1990 nM | – |
| N#Cc1c(Cl)nc(SCc2cccc(C(=O)O)c2)nc1-c1ccccc1 [Compound 22] | 1100 nM | – |
| N#Cc1c(-c2cccs2)nc(SCC(=O)Nc2ccccc2O)[nH]c1=O [Compound 23] | 4900 nM | – |
